Experimental data: patent US7662382B2, “Inducible ligand for α1β1 integrin and uses” (Boys Town National Research Hospital, priority 2002, dated 2010)

Key:
[1] = system: primary kidney endothelial cell cultures; test: Binding of Alexa-568-conjugated α1β1 integrin to treated primary kidney endothelial cells; assay type: cell-based, mouse
Description: Primary endothelial cells were isolated from wild type mouse kidneys using anti-CD31 coated metallic beads. Cells were cultured in endothelial cell medium (DMEM/F12, 50 μg/ml Endothelial mitogen, 1% penicillin/streptomycin, 20 mM L-Glutamine, and 1 U/mL heparin prepared fresh not filtered) containing 20% FCS. Thirty-two wells of 5×10^4 cells/well in a 96 well plate coated with 1% gelatin in sterile PBS were set up. Cells were maintained in endothelial cell media with 20% FCS until cells reached confluence. Confluent cells were washed with HBSS, then covered with endothelial cell media without serum at 200 μL/well and kept in a humidified chamber at 37° C., 5% CO2. Twenty-four hours later fresh endothelial cell medium was added without serum and various concentrations of MCP-1 and H2O2 were added at 24 or 48 hours (hrs) prior to conducting the assay for cell binding to α1β1 integrin as shown in the following Table 1.

[2] = system: renal cortical vascular endothelium; test: Binding of Alexa 568-labeled purified α1β1 integrin to kidney vascular endothelium after tail vein injection; assay type: in vivo, mouse; conditions: 24 hours after tail vein injection
From the text: If such a direct role exists, there must be a ligand for α1β1 integrin on the renal cortical vascular endothelium of Alport mice that is absent on normal mice. To test for the presence of such a ligand, purified α1β1 integrin (purchased from Chemicon, Temecula, Calif.) was labeled with Alexa 568, and the labeled integrin injected into the tail vein of normal, Alport, and DKO mice. Twenty-four hours following the injection, kidneys were harvested, and cryosections examined. […] Since monocytes phagocytize labeled dextrans, what is interpreted as integrin might be phagocytized integrin in monocytes.

[3] = biological target: T1, ligand for α1β1 integrin on endothelial cells (Collagen XIII) (Mus musculus, UniProt Q9R1N9); test: Monocyte efflux into the interstitium of Alport kidneys after injection of purified α1β1 integrin (Alexa 568 dextran trafficking); assay type: in vivo; conditions: Alport mice, 5 μg purified α1β1 integrin into tail vein daily from one day before labeled dextrans, kidneys three days after dextrans, vs untreated Alport mice
T1 construct: from tissue; host or cells: vascular endothelium of kidneys of living Alport (collagen IV α3 -/-) mice
T1 sequence (Q9R1N9 whole entry): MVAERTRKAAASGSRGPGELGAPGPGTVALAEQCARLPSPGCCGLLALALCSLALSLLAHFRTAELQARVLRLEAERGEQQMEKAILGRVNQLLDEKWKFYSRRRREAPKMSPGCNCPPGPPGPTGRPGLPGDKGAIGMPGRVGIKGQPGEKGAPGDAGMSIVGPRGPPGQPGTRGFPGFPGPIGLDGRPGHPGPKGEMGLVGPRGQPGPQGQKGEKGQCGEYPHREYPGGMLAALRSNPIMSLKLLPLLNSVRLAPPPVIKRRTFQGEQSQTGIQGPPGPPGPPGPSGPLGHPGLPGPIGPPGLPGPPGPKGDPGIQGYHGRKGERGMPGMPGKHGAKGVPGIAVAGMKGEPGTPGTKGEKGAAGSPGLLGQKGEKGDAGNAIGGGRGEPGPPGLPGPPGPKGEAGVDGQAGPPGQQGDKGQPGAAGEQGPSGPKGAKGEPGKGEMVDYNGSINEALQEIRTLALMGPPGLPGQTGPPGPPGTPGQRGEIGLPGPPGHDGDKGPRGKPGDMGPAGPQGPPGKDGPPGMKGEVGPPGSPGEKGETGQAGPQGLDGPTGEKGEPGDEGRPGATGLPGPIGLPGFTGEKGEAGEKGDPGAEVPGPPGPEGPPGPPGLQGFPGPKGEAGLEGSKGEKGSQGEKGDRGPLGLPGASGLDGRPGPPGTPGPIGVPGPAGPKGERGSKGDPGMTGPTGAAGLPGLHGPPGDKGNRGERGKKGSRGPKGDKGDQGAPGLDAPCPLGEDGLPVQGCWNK
From the text: Male wild type 129SV and 129SVJ mice (4-12 weeks old) along with collagen IV α3 (−/−) (Alport: 5-8 weeks old) and collagen IV α3 (−/−)/integrin α1 (−/−) double knock out (DKO: 8-12 weeks old) mice were tail vein injected with […] of Alexa 568 labeled dextran reconstituted in 100 microliters (μL) Hanks Balanced Salt Solution (pH 7.2). Three days post injection animals were given a lethal injection of averitin (0.55 grams per kilogram (g/kg) body weight; ip) followed by cardiac perfusion with ice cold PBS. Kidneys were removed and immersed in increasing concentrations of ice cold sucrose (30% max) then embedded in Tissue Tek OCT mounting medium (Sakura Finetek USA, Inc., Torrence, Calif.) and stored at −80° C.
Fresh frozen tissue sections (4 μm) were fixed in 2% paraformaldehyde for 5 minutes and allowed to dry overnight at 4° C. followed by extended storage at −20° C. or immunohistochemical detection of monocytes using rat monoclonal α-CD11b (Cedar Lane laboratories, Hornby, Ontario) and Goat anti rat Alexa 488 (Molecular Probes, Inc. Eugene, Oreg.) antibodies at 1:100 and 1:200 dilutions respectively. Sections were cover slipped with vectorshield mounting medium (Vector Corp. Burlingme, Calif.). […] Green fluorescence alone as well as co-localized dual fluorescence were measured using Image Pro Plus software (Media Cybernetics, Inc. Silver Spring, Md.). […]

[4] = Pilot stability study with Alexa-conjugated integrin α1β1; conditions: Alexa-conjugated integrin α1β1, data not shown
Description: In an attempt to provide a more definitive test for the function of α1β1 in monocyte efflux into diseased kidneys, 5 μg of purified α1β1 integrin was injected into the tail vein of Alport mice daily, starting one day before injection of labeled dextrans, and kidneys harvested three days following injection of dextrans. Pilot studies with Alexa-conjugated integrin α1β1 were conducted to assess the stability prior to the blocking experiments. […] If transendothelial migration of monocytes into the interstitial space is mediated, in part, through binding a ligand on endothelial cells, a decrease in labeled monocytes in Alport mice treated with α1β1 integrin compared to untreated age-matched Alport mice should be observed, since the purified integrin should occupy ligand, making less available for binding to monocytes.

With `OO` [hydrogen peroxide, reference compound] the “binding of Alexa-conjugated α1β1 integrin to cultured primary kidney endothelial cells” value ([1]; cells treated with hydrogen peroxide (24 or 48 hrs), concentration and time-dependent) was “promotes the binding”.

In the case of “MCP-1: recombinant monocyte chemo-attractive protein-1, a chemokine”, the “adhesion of α1β1 integrin to endothelial cells” value ([1]; cells pre-treated with recombinant MCP-1 (24 or 48 hrs) vs untreated cells, time and dose dependent) is reported as “significantly elevated adhesion”.

With “purified α1β1 integrin: purified human α1β1 integrin purchased from Chemicon, Temecula, Calif.; also used labeled with Alexa 568” the “labeling of kidney cryosections by Alexa 568-labeled integrin” value ([2]; Alport mice) was “strong labeling in the vascular endothelium”, the “labeling of kidney cryosections by Alexa 568-labeled integrin” value ([2]; normal (control) mice) was “absence of label” and the “monocyte efflux (Alexa-labeled CD11b-positive monocytes in the interstitium)” value [3] was “a trend for a reduction in monocyte efflux”. For the same compound, the “stability of the purified integrin” value [4] was “at least 72 hours”.
